Source: patent US20240409935A1, “Atg8ylation coordinates stress granule formation and mTOR inactivation in response to lysosomal damage” (priority 2023, published 2024)

Experiments:
[1] = system: G3BP1 puncta (stress granules) in U2OS cells; assay: HCM quantification of G3BP1 puncta (stress granule formation) in U2OS cells; assay type: cell-based, human
ALIX, PKR and PACT = assay: Co-IP analysis of interactions among FLAG-ALIX, PKR and PACT in HEK293T cells; assay type: cell-based, human; details: 1 mM LLOMe for 30 min
Method: HEK293T cells expressing FLAG (control) or FLAG-ALIX Were treated with 1 mM LLOMe for 30 min. Cell lysates Were immunoprecipitated with anti-FLAG antibody and immunoblotted for indicated proteins. […] FL (full length); Bro1 (Bro1 domain); V domain; PRD (proline-rich domain). Numbers, residue positions. (ii) Schematic illustration of the Ca^2+/ALG-2-induced open conformation of ALIX. […] HEK293T cells expressing FLAG tagged ALIX mutants and Myc-PKR Were treated with 1 mM LLOMe for 30 min. Cell lysates Were immunoprecipitated with anti-GFP antibody and immunoblotted for indicated proteins. FIG. 12F Analysis of proteins associated with purified lysosomes (LysoIP; TMEM192-3×HA) from HEK293T cells transfected with scrambled siRNA as control (SCR), or ALIX siRNA for knockdown (ALIX^KD). Cells Were treated with 1 mM LLOMe for 30 min. FIG. 12G Schematic summary of the findings in FIGS. 5 and S5. One of three independent western Blot experiments shown. See also FIG. 1S1.

COC(=O)[C@H](CC(C)C)NC(=O)[C@@H](N)CC(C)C [LLOMe, L-leucyl-L-leucine methyl ester]
number of SGs upon LLOMe washout ([1]; 2 mM LLOMe 30 min followed by 1 h washout): reduction in the number of SGs
SG formation response (G3BP1 puncta) ([1]; agent alone for 30 min (2 mM LLOMe, 200 μM GPN, 400 μg/mL silica, 4 mM LOMe)): robust SG formation response
interaction between FLAG-ALIX and endogenous PKR and PACT (co-IP) (ALIX, PKR and PACT): notably enhanced
